Measurements as given in US20090298897A1, “Treatment of Inflammatory Disorders With Triazole Compounds” (priority 2006, published 2009).
“And” between values parts separate entries of the source, which are not always exact repeats. Identical values can stand only once. “Also recorded” adds a separate entry of the source.

Columns and labels:
[1] = test system: moderate to severe facial acne vulgaris; test: Treatment of acne vulgaris with oral rambazole (lesion counts); type: in vivo, human; conditions: for Table 5 (untitled, lesion count per subject): individual subjects; for No. of Responders (≧50% reduction in inflammatory lesions): of 16 subjects
Description: Sixteen patients with moderate to severe facial acne vulgaris received a daily oral dose of 1 mg of rambazole for 12 weeks. […] The average lesion reduction was 79%. See Tables 3 through 7 for additional individual data. See FIGS. 5 and 6, respectively, for a comparison of the response to treatment of inflammatory lesions versus non-inflammatory lesions.

[2] = test system: IL-12p40; test: IL-12 secretion by activated monocytes (IL-12p40 ELISA); type: cell-based, human; conditions: monocytes activated with Zymosan or 19 kDa lipoprotein for 18 h
Description: Peripheral blood mononuclear cells (PBMC) were isolated from healthy donors by density gradient centrifugation on Ficoll-Hypaque Plus and monocytes were selected by adherence. After overnight culture in RPMI 1640 supplemented with […] FBS, monocytes were activated with Zymosan or 19 kDa lipoprotein for 18 h, and IL-12p40 was measured in the supernatant by ELISA.

[3] = test system: mild to moderate acne vulgaris; test: Treatment of acne vulgaris with topical rambazole; type: in vivo, human; conditions: after 12 weeks; daily topical 0.35% rambazole
[4] = test system: moderate to severe plaque type psoriasis; test: Treatment of psoriasis with oral rambazole (PASI score); type: in vivo, human; conditions: for % PASI Score from Baseline: individual subjects
Description: Seventeen patients with a Psoriasis Area and Severity Index (PASI) score of at least 5 (moderate to severe plaque type psoriasis) received a daily oral dose of 1 mg of rambazole. The evolution of the PASI score was monitored after 1, 2, 4 and 8 weeks of treatment and at the end of a 2-week follow-up period. […] Biopsies from lesions were taken and surface markers were analyzed.

[5] = test system: IP-10; test: IP-10 expression and secretion in IFNγ-activated normal human epidermal keratinocytes (ELISA); type: cell-based; conditions: 50 U/mL IFNγ; rambazole 10^-5 M to 3×10^-8 M for 18 hours
Description: Fourth passage normal human epidermal keratinocytes were plated at 2,000 cells/well in low Ca^2+ KSFM. After 3 days incubation to 60% confluence, the medium was removed and cells were stimulated with 50 U/mL IFNγ and incubated with rambazole ranging from 10^-5 M to 3×10^-8 M for 18 hours. Interferon-inducible protein (IP-10) expression in the culture medium was determined using the IP-10 sandwich-type ELISA and all data were corrected for cell count. Values are represented as mean percentages±SD (n=4) versus drug solvent control.

[6] = test system: Interleukin-1 (IL-1); test: Expression of IL-1 in the skin of healthy volunteers (real-time PCR); type: in vivo, human
Description: In this randomized, double-blind, left-right, placebo-controlled trial, the expression of Interleukin-1 (IL-1) in the skin of 15 healthy subjects was evaluated after a once daily application of rambazole gel at two different concentrations (0.35% or 0.07%) on intact skin for 9 days. The IL-1 biomarker was analyzed with real-time PCR.

[7] = test system: SLS-induced irritant dermatitis; test: Irritant dermatitis induced by sodium lauryl sulfate (SLS); type: in vivo, human; conditions: 0.35% gel, 4 days pre-treatment and 5 days during 2% SLS; healthy volunteers
Description: Rambazole (0.35%) gel was applied as a pre-treatment during four days. Inflammation was induced by applying 2% SLS during 2 hours in rings on the arm of twelve healthy volunteers once a day for five days. Rambazole (0.35%) gel was applied during the five days of induced inflammation. Skin reactions of non-treated and rambazole gel-treated skin sites were assessed 24 hours after each application with SLS and 72 hours after the last SLS application (visual scoring of redness, chromametry, TEWL).

[8] = test system: skin of volunteers, UVB; test: Effects of topical 0.35% rambazole on UVB-induced inflammation (chromametry); type: in vivo, human; conditions: topical 0.35% for 9 days, then 5 days UVB
From the text: In an investigator-blinded, placebo-controlled study, topical 0.35% rambazole was applied to the skin of volunteers for 9 days, followed by 5 days of induction of inflammation with UVB. Adapalene was used in the study as a standard anti-inflammatory agent.

With `CCC(CC)C(c1ccc(Nc2nc3ccccc3s2)cc1)n1cncn1` (centres unmarked) [rambazole] as the compound, how does the “Table 4 (untitled, change of Table 3 count versus Visit 2), Min.” value ([1]; Visit No. 6, N 16) read?
The value was −165.

And the “Table 6 (untitled, summary of Table 5 lesion count), Max.” value ([1]; Visit No. 6, N 16)?
The value was 65.

And the “Table 6 (untitled, summary of Table 5 lesion count), Mean” value ([1]; Visit No. 6, N 16)?
The value was 22.6.

And the “Table 6 (untitled, summary of Table 5 lesion count), Median” value ([1]; Visit No. 6, N 16)?
Its value is 26.0.

And the “Table 6 (untitled, summary of Table 5 lesion count), Min.” value ([1]; Visit No. 6, N 16)?
The value was 0.

What about the “Table 7 (untitled, change of Table 6 count versus Visit 2), Max.” value ([1]; Visit No. 6, N 16) of the same compound?
Its value is −22.

What about the “Table 7 (untitled, change of Table 6 count versus Visit 2), Mean” value ([1]; Visit No. 6, N 16) of the same compound?
The value was −58.6.

What about the “Table 7 (untitled, change of Table 6 count versus Visit 2), Median” value ([1]; Visit No. 6, N 16) of the same compound?
The value was −58.5.

And the “Table 7 (untitled, change of Table 6 count versus Visit 2), Min.” value ([1]; Visit No. 6, N 16)?
The value was −165.

And the “Table 5 (untitled, lesion count per subject)” value ([1]; Visit No. 6)?
The value was 0 (2×) and 1 (2×) and 3 (2×) and 25 and 37 and 22 and 34 (2×) and 29 and 41 and 40 and 27 and 65.

What about the “Table 3 (untitled, lesion count), Max.” value ([1]; Visit No. 7, N 16) of the same compound?
The value was 56.

And the “Table 3 (untitled, lesion count), Mean” value ([1]; Visit No. 7, N 16)?
Its value is 13.3.

What about the “Table 3 (untitled, lesion count), Median” value ([1]; Visit No. 7, N 16) of the same compound?
Its value is 8.0.

And the “Table 3 (untitled, lesion count), Min.” value ([1]; Visit No. 7, N 16)?
Its value is 0.

What about the “Table 4 (untitled, change of Table 3 count versus Visit 2), Max.” value ([1]; Visit No. 7, N 16) of the same compound?
Its value is −14.

What about the “Table 4 (untitled, change of Table 3 count versus Visit 2), Mean” value ([1]; Visit No. 7, N 16) of the same compound?
Its value is −42.9.

What about the “Table 4 (untitled, change of Table 3 count versus Visit 2), Median” value ([1]; Visit No. 7, N 16) of the same compound?
Its value is −35.0.

What about the “Table 4 (untitled, change of Table 3 count versus Visit 2), Min.” value ([1]; Visit No. 7, N 16) of the same compound?
The value was −159.

What about the “Table 6 (untitled, summary of Table 5 lesion count), Max.” value ([1]; Visit No. 7, N 16) of the same compound?
Its value is 71.

And the “Table 6 (untitled, summary of Table 5 lesion count), Mean” value ([1]; Visit No. 7, N 16)?
Its value is 21.3.

And the “Table 6 (untitled, summary of Table 5 lesion count), Median” value ([1]; Visit No. 7, N 16)?
The value was 13.5.

What about the “Table 6 (untitled, summary of Table 5 lesion count), Min.” value ([1]; Visit No. 7, N 16) of the same compound?
The value was 0.

And the “Table 7 (untitled, change of Table 6 count versus Visit 2), Max.” value ([1]; Visit No. 7, N 16)?
Its value is −22.

What about the “Table 7 (untitled, change of Table 6 count versus Visit 2), Mean” value ([1]; Visit No. 7, N 16) of the same compound?
Its value is −59.9.

What about the “Table 7 (untitled, change of Table 6 count versus Visit 2), Median” value ([1]; Visit No. 7, N 16) of the same compound?
Its value is −52.5.

And the “Table 7 (untitled, change of Table 6 count versus Visit 2), Min.” value ([1]; Visit No. 7, N 16)?
Its value is −178.

What about the “Table 5 (untitled, lesion count per subject)” value ([1]; Visit No. 7) of the same compound?
The value was 0 (2×) and 4 and 2 and 1 and 5 and 38 and 25 and 39 and 6 and 35 and 21 and 71 and 31 and 60 and 3.

What about the “Percent Responders (≧50% reduction in inflammatory lesions)” value ([1]; Week 4, 1 mg oral daily) of the same compound?
The value was 31%.

What about the “No. of Responders (≧50% reduction in inflammatory lesions)” value ([1]; Week 4) of the same compound?
The value was 5.

And the “Percent Responders (≧50% reduction in inflammatory lesions)” value ([1]; Week 8, 1 mg oral daily)?
The value was 56%.

And the “No. of Responders (≧50% reduction in inflammatory lesions)” value ([1]; Week 8)?
Its value is 9.

And the “Percent Responders (≧50% reduction in inflammatory lesions)” value ([1]; Week 12, 1 mg oral daily)?
The value was 100%.

What about the “No. of Responders (≧50% reduction in inflammatory lesions)” value ([1]; Week 12) of the same compound?
Its value is 16.

What about the “Percent Responders (≧50% reduction in inflammatory lesions)” value ([1]; Week 16 (follow-up)) of the same compound?
The value was 88%.

What about the “No. of Responders (≧50% reduction in inflammatory lesions)” value ([1]; Week 16 (follow-up)) of the same compound?
The value was 14.

What about the average lesion reduction ([1]; after 12 weeks, 1 mg oral daily) of the same compound?
Its average lesion reduction is 79%.

What about the “time within which inflammatory lesions responded” value ([1]; rambazole-treated inflammatory lesions, in contrast with retinoids such as isotretinoin) of the same compound?
Its value is ≤ 4 weeks.

What about the “IL-12 secretion (IL-12p40 in supernatant)” value [2] of the same compound?
The value was “dose-dependently suppressed; also recorded: suppression of IL-12”.

What about the “reduction in global assessment score” value [3] of the same compound?
The value was “approximately 40%”.

And the “side effects / tolerability” value ([4]; daily oral dose 1 mg, psoriasis patients)?
Its value is “mild to moderate; also recorded: well tolerated”.

What about the “time lesions continue to improve and show reduced inflammatory patterns after discontinuation of treatment” value ([4]; rambazole-treated lesions such as psoriatic lesions) of the same compound?
The value was “at least 3 months”.

And the “mean reduction in PASI score” value ([4]; subjects that completed 8 weeks of treatment, daily oral dose 1 mg)?
Its value is 51.4%.

What about the “% PASI Score from Baseline” value ([4]; week 1, 1 mg oral daily) of the same compound?
Its value is 100% (4×) and 93% and 81% and 88% and 80% and 92% (2×) and 113% and 87% and 97% and 89% (2×) and 79% and 108%.

What about the “% PASI Score from Baseline” value ([4]; week 2, 1 mg oral daily) of the same compound?
The value was 99% and 86% (2×) and 95% and 79% and 108% and 75% and 92% (2×) and 150% and 96% and 88% and 89% and 77% and 98% and 83% and 117%.

What about the “% PASI Score from Baseline” value ([4]; week 4, 1 mg oral daily) of the same compound?
Its value is 99% and 88% and 81% and 57% and 84% (2×) and 78% and 104% and 85% and 97% and 70% and 69% and 80% and 60% and 107% and 206%.

And the “% PASI Score from Baseline” value ([4]; week 8, 1 mg oral daily)?
The value was 96% and 55% and 109% and 47% and 67% and 73% and 62% and 79% and 43% and 35% and 34% and 41% and 86% and 97%.

And the “% PASI Score from Baseline” value ([4]; week 10 (end of 2-week follow-up))?
Its value is 81% and 27% and 105% and 51% and 36% and 49% and 45% and 37% and 73% and 52% and 4% and 34% and 28% and 70% and 87%.

What about the “IP-10 expression and secretion” value [5] of the same compound?
The value was “dose-dependently down regulated”.

And the “skin reaction reported by one subject” value ([6]; 0.35% rambazole, during one day after 8 days of treatment)?
Its value is “mild itching”.

And the “local skin reactions during 9 days of treatment” value ([6]; gel 0.35% or 0.07% once daily)?
The value was “no itching, irritating, stinging, burning or vesiculation occurred”.

And the “IL-1 expression in skin” value ([6]; gel 0.35% or 0.07% once daily on intact skin for 9 days, healthy subjects)?
Its value is “dose-dependently decrease”.

What about the “inflammatory response induced by application of SLS (visual scoring of redness, chromametry, TEWL)” value [7] of the same compound?
Its value is “inhibits the inflammatory response”.

What about the “phototoxicity (chromametry)” value [8] of the same compound?
Its value is “no indication of phototoxicity”.
